Assay results published in patent US11427548B2 (Arvinas Operations, Inc., priority 2015, dated 2022).
Entries after “also recorded” stand apart in the source; their conditions may differ. Where two headings read alike, the source gives them in different places.

Key:
Androgen Receptor [1] = molecular target: T1, Androgen Receptor (Homo sapiens, UniProt P10275); assay: Androgen Receptor ELISA assay (PathScan AR ELISA) in VCaP cells: AR degradation, Dmax and DC50; format: cell-based; conditions: for Dmax: VCaP, read-out: VCaP Dmax (%); for DC50: read-out: VCaP DC50, concentration that caused 50% Androgen Receptor degradation
T1 construct: endogenous in cells; host or cells: VCaP cells
T1 sequence (P10275 1-920): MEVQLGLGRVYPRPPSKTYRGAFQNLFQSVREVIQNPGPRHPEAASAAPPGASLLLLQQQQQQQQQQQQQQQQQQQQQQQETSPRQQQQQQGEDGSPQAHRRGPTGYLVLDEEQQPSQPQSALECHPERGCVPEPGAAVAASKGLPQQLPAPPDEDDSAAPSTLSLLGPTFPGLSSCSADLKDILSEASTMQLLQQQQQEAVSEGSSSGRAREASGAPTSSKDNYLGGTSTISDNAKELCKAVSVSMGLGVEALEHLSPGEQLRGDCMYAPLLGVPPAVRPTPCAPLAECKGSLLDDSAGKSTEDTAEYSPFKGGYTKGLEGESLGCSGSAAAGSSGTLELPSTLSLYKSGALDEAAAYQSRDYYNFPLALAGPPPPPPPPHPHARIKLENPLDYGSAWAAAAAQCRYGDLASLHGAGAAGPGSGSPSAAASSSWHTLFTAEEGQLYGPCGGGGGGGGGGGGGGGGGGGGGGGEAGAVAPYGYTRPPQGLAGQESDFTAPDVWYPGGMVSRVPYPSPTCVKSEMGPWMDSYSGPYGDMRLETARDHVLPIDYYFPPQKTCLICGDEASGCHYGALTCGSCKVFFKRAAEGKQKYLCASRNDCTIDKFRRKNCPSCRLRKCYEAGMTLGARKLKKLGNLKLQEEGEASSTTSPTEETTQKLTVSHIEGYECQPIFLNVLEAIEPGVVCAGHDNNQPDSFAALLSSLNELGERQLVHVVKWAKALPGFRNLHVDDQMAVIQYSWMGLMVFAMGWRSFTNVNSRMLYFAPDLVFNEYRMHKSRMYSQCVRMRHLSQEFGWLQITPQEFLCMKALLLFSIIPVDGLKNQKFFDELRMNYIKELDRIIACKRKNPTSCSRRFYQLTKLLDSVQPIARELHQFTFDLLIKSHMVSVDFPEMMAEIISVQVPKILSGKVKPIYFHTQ
Procedure, shortened: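 VCaP cells in phenol red-free RPMI with 5% charcoal-stripped FBS were grown at least 3 days, then given compound as 7 half-log doses in 0.1% DMSO with 0.1 nM R1881 for 24 h. Lysates went into a sandwich AR ELISA with TMB read at 450 nm.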

[2] = PROTAC subcutaneous pharmacokinetics in CD-1 mice; format: in vivo; conditions: male, plasma, CD-1 Mouse, 10 mg/kg SC dose, vehicle ESD-1
Description: 9. PROTAC Prodrug Oral Pharmacokinetics and PROTAC Subcutaneous Phamacokinetics.
Representative Pharmacokinetic Procedure
Male CD-1 mice (6-8 weeks old, weighing 20-30 g, 3 per study) with free access to food and water were administered with the test article at 10 mg/kg either by oral gavage or sub-cutaneous injection in the formulation specified in tables 20 and 21, at 10 mL/kg.
Approximately 0.04 mL blood samples were collected from the dorsal metatarsal vein serially at 0.25, 0.5, 1, 2, 4, 8 and 24 h timepoints; heparin was used as the anticoagulant. The samples were centrifuged at 4000 g for 5 min at 4° C. then stored at −75° C. prior to analysis.
The plasma samples were analysed via an LC/MS/MS method quantitating for unchanged, administered test article, and/or a derivative species as appropriate. WinNonlin (Phoenix™) was used for the pharmacokinetic calculations and modeling, to generate parameters such as Cmax and AUC.

AR = molecular target: T2, AR (Homo sapiens, UniProt P10275+P40337, T878A); assay: AR degradation of PROTAC is E3 ligase dependent (LNCaP cells); format: cell-based
T2 construct: Compounds have been evaluated in this assay in LNCaP and/or VCaP cells utilizing similar protocols; endogenous in cells; host or cells: LNCaP cells
T2 sequence (P10275 whole entry T878A): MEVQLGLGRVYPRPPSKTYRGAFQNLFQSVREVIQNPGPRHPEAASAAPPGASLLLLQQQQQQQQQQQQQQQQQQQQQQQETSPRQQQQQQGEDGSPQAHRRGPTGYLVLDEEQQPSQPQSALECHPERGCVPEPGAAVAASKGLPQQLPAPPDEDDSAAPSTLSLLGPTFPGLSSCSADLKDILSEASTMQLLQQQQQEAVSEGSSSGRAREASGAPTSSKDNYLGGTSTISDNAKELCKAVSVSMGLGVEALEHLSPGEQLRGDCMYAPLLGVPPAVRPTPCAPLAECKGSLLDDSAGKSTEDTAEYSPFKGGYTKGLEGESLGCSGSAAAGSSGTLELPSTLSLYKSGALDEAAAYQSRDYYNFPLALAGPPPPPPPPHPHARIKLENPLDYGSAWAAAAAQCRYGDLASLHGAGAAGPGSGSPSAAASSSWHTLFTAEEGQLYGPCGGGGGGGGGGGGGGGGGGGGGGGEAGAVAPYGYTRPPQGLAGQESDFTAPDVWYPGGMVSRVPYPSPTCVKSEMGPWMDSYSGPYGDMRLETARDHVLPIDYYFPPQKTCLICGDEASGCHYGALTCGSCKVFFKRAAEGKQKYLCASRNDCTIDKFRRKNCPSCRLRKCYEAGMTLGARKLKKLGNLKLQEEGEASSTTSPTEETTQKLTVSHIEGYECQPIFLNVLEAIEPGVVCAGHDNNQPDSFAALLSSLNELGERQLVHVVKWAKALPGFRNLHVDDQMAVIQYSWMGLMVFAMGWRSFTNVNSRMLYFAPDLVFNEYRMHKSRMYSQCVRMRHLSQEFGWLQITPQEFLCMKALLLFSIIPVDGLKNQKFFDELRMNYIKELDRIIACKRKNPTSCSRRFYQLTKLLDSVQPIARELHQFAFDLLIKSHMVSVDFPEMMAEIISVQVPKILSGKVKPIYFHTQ
T2 sequence (P40337 whole entry): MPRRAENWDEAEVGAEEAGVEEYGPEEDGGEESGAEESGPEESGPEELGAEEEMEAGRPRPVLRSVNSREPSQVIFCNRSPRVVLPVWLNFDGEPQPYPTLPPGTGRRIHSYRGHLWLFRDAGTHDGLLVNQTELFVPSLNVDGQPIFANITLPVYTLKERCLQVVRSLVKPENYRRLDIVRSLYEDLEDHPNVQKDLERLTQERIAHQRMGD
T2 sequence (Q15369 whole entry partner): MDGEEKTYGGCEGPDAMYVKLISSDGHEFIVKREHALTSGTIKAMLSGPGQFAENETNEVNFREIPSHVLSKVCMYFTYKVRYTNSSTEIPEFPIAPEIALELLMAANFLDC
T2 sequence (Q15370 whole entry partner): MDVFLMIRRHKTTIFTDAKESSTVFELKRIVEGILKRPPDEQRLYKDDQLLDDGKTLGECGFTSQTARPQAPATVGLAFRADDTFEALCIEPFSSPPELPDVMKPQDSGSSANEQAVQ
Description: FIG. 7A and FIG. 7B. AR degradation of PROTAC is E3 ligase dependent.
8. AR Degradation of PROTAC is E3 Ligase Dependent.

Androgen Receptor [3] = molecular target: T3, Androgen Receptor (Homo sapiens, UniProt P10275+P40337, T878A); assay: Androgen Receptor ELISA assay (PathScan AR ELISA) in LNCaP cells: AR degradation, Dmax and DC50; format: cell-based
T3 construct: Compounds have been evaluated in this assay in LNCaP and/or VCaP cells utilizing similar protocols; endogenous in cells; host or cells: LNCaP cells
T3 sequence (P10275 whole entry T878A): as the sequence (P10275 whole entry T878A) above
T3 sequence (P40337 whole entry): as the sequence (P40337 whole entry) above
T3 sequence (Q15369 whole entry partner): as the sequence (Q15369 whole entry partner) above
T3 sequence (Q15370 whole entry partner): as the sequence (Q15370 whole entry partner) above

[4] = system: LNCaP cells transduced with AR F876L construct; assay: Anti-proliferation in LNCaP F876L (CellTiterGlo); format: cell-based; conditions: Charcoal Stripped Serum media, indicated doses for 7 days
Description: FIG. 3. Anti-proliferation in LNCaP F876L. […] LNCaP cells transduced with AR F876L construct were cultured in Charcoal Stripped Serum containing media.
4. Anti-Proliferation in LNCaP F876L.
LNCaP cells transduced with AR F876L construct were cultured in Charcoal Stripped Serum containing media. […] CellTiterGlo reagent (Promega) was employed to assess proliferation.

VCaP cells = assay: VCaP cell proliferation assay (Cell Titer Glo), GI50; format: cell-based; conditions: Homo sapiens; VCaP cells, 0.1 nM R1881; Table 37; read-out: GI50, Inhibition of VCaP Proliferation
Procedure, shortened: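 VCaP cells at 7,500/well were androgen-depleted for at least 3 days in phenol red-free RPMI with 5% charcoal-stripped FBS, then dosed with PROTACs plus 0.1 nM R1881. Growth was read by CellTiter Glo luminescence against a baseline taken on the day of dosing, giving GI50.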

VCaP xenograft = assay: Tumor growth inhibition in VCaP xenograft model; format: in vivo; conditions: VCaP cells s.c. in castrated CB17 scid mice; enzalutamide PO, QD, 30 mpk; Example 163 IP, QD, 30, 10 and 3 mpk
Description: FIG. 6. Tumor growth inhibition in VCaP xenograft model. VCaP cells were implanted into CB17 scid mice subcutaneously. Once the tumors were palpable, the mice were castrated, leading to temporary tumor stasis.
7. Tumor Growth Inhibition in VCaP Xenograft Model.
VCaP cells were implanted into CB17 scid mice subcutaneously. Once the tumors were palpable, the mice were castrated, leading to temporary tumor stasis.

C57B6 mouse model = assay: Prostate involution in C57B6 mouse model; format: in vivo; conditions: 12-week old male C57BL/6 mice; IP, QD, 1 and 3 mpk; 10 days
Description: FIG. 5. Prostate involution in C57B6 mouse model.
6. Prostate Involution in C57B6 Mouse Model.

SMILES	Dmax (Androgen Receptor [1]) [%]	DC50 (Androgen Receptor [1]; VCaP cells) [nM]	AUC(0-t) ([2]; read-out: Plasma Exposure AUC0-24) [ng·h/mL]	Cmax ([2]; read-out: Plasma Exposure Cmax) [ng/mL]	AR degradation activity in the presence of VHL E3 ligase ligand compound B (AR; 24 hours, 10 uM compound B)	degradation of AR (AR; PROTAC versus inactive epimer analog unable to bind VHL E3 ligase)	DC50 (Androgen Receptor [3]; concentration that caused 50% Androgen Receptor degradation) [nM]	Dmax (Androgen Receptor [3]; highest percentage of Androgen Receptor degradation observed) [%]	proliferation / agonist activity in LNCaP F876L cells [4]	GI50 (VCaP cells) [nM]	Dmax (Androgen Receptor [1]; highest percentage of Androgen Receptor degradation observed, VCaP cells (Table 32)) [%]	DC50 (Androgen Receptor [1]; VCaP cells (Table 32)) [nM]	Tumor growth inhibition (VCaP xenograft)	prostate weights (prostate involution) (C57B6 mouse model)
Cc1ncsc1-c1ccc(CNC(=O)[C@@H]2C[C@@H](O)CN2C(=O)[C@@H](NC(=O)COCCCOCCCCCOc2ccc(N3C(=S)N(c4ccc(C#N)c(C(F)(F)F)c4)C(=O)C3(C)C)cc2)C(C)(C)C)cc1 [Example 1, (2S,4R)-1-((S)-2-(2-(3-(5-(4-(3-(4-cyano-3-(trifluoromethyl)phenyl)-5,5-dimethyl-4-oxo-2-thioxoimidazolidin-1-yl)phenoxy)pentyloxy)propoxy)acetamido)-3,3-dimethylbutanoyl)-4-hydroxy-N-(4-(4-methylthiazol-5-yl)benzyl)pyrrolidine-2-carboxamide]	51 to 70	< 50	15600	1150	greatly diminishes the AR degradation activity	significant degradation of AR	< 50	> 71	did not exhibit agonist activity; also recorded: Anti-proliferation in LNCaP F876L cells observed	–	–	–	–	–
Cc1ncsc1-c1ccc(CNC(=O)[C@@H]2C[C@@H](O)CN2C(=O)[C@@H](NC(=O)COCCCCOc2ccc(C(=O)N[C@H]3C(C)(C)[C@H](Oc4ccc(C#N)c(Cl)c4)C3(C)C)cc2)C(C)(C)C)cc1 [Example 163, (2S,4R)-1-[(2S)-3,3-dimethyl-2-{2-[4-(4-{[trans-3-(3-chloro-4-cyanophenoxy)-2,2,4,4-tetramethylcyclobutyl]carbamoyl}phenoxy)butoxy]acetamido}butanoyl]-4-hydroxy-N-{[4-(4-methyl-1,3-thiazol-5-yl)phenyl]methyl}pyrrolidine-2-carboxamide]	–	–	–	–	–	–	–	–	–	≤ 50	> 71	< 50	Tumor growth inhibition was observed	significant reduction in prostate weights; also recorded: significant prostate involution
